The values below come from patent US6967196B1, “Sulfonamide compounds and uses thereof” (Bristol-Myers Squibb Company, priority 1999, dated 2005).

Molecules are shown by their SMILES. pIC50: −log10 of the molar value. Bounds are passed on as bounds.

One may read the pIC50 as the negative decadic logarithm of the IC50, by convention in mol/L.

In the experiment the test system is amyloid β production in transfected H4 (human neuroglioma) cells stably expressing APP constructs. Put plainly: In vitro cell-based assay of inhibitors of amyloid β production (ELISA). The following applies: Homo sapiens, 16 h, transfected H4 cells expressing APP, approximately 16 hours incubation, amyloid β in medium by ELISA; read-out: ACTIVITY (IC50, inhibition of amyloid β production). An outline of the steps:
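Test agents are screened at 10-100 μM for about 16 hours on cells stably expressing wild-type or variant APP. Secreted Aβ is measured by ELISA and compared with control-treated cells.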
On to `CNC(=O)OC[C@@H](C)N(c1cc(Cl)ccc1CO)S(=O)(=O)c1ccc(Cl)cc1` [Example 1280], for which the pIC50 was ≥ 7.60.
Next, `CCCNC(=O)OC[C@@H](C)N(c1cc(Cl)ccc1CO)S(=O)(=O)c1ccc(Cl)cc1` [Example 1281]: ≥ 7.60; `C[C@H](COC(=O)NC(C)(C)C)N(c1cc(Cl)ccc1CO)S(=O)(=O)c1ccc(Cl)cc1` [Example 1282]: ≥ 7.60; `CCN(CC)C(=O)OC[C@@H](C)N(c1cc(Cl)ccc1CO)S(=O)(=O)c1ccc(Cl)cc1` [Example 1283]: ≥ 7.60.
Consider `C[C@H](COC(=O)NC1CCCCC1)N(c1cc(Cl)ccc1CO)S(=O)(=O)c1ccc(Cl)cc1` [Example 1284], for which the pIC50 is ≥ 7.60.
Next, `C[C@H](COC(=O)NCCCn1ccnc1)N(c1cc(Cl)ccc1CO)S(=O)(=O)c1ccc(Cl)cc1` [Example 1285]: ≥ 7.60.
`CC(C)NC(=O)OC[C@@H](C)N(c1cc(Cl)ccc1CO)S(=O)(=O)c1ccc(Cl)cc1` [Example 1286]: the pIC50 was ≥ 7.60.
Next, `C[C@H](COC(=O)N1CCCC1)N(c1cc(Cl)ccc1CO)S(=O)(=O)c1ccc(Cl)cc1` [Example 1287]: ≥ 7.60; `CC(CCOC(=O)NCCCn1ccnc1)N(c1cc(Cl)ccc1CO)S(=O)(=O)c1ccc(Cl)cc1` (stereo not drawn) [Example 1289]: ≥ 7.60; `C[C@H](CCCOC(=O)NCCCn1ccnc1)N(c1cc(Cl)ccc1CO)S(=O)(=O)c1ccc(Cl)cc1` [Example 1290]: < 6.30.
As to `CC(CCOC(=O)NCCn1ccnc1)N(c1cc(Cl)ccc1CO)S(=O)(=O)c1ccc(Cl)cc1` (stereo not drawn) [Example 1291], the pIC50 is ≥ 7.60.
Under `C[C@H](CCCOC(=O)NCCn1ccnc1)N(c1cc(Cl)ccc1CO)S(=O)(=O)c1ccc(Cl)cc1` [Example 1292] stands < 5.00; under `C[C@H](COC(=O)NCCn1ccnc1)N(c1cc(Cl)ccc1CO)S(=O)(=O)c1ccc(Cl)cc1` [Example 1293], < 5.00.
Next, `C[C@H](COC(=O)NCCCn1cnnn1)N(c1cc(Cl)ccc1F)S(=O)(=O)c1ccc(Cl)cc1` [Example 1294]: ≥ 7.60; `C[C@H](COC(=O)NCCCn1ncnn1)N(c1cc(Cl)ccc1F)S(=O)(=O)c1ccc(Cl)cc1` [Example 1295]: ≥ 7.60.
In the case of `CCN(CCCn1ccnc1)C(=O)OC[C@@H](C)N(c1cc(Cl)ccc1CO)S(=O)(=O)c1ccc(Cl)cc1` [Example 1296], the pIC50 was < 5.00.
As for `C[C@H](CCCOC(=O)N(C)CCO)N(c1cc(Cl)ccc1CO)S(=O)(=O)c1ccc(Cl)cc1` [Example 1297], the pIC50 was ≥ 7.60.
For `C[C@H](CCCOC(=O)N1CCCC1)N(c1cc(Cl)ccc1CO)S(=O)(=O)c1ccc(Cl)cc1` [Example 1298], the pIC50 was ≥ 7.60.
Next, `CCCCNC(=O)[C@@H](C)N(c1cc(Cl)ccc1F)S(=O)(=O)c1ccc(Cl)cc1` [Example 1299]: 6.30 to 7.00; `C[C@H](C(=O)NCc1ccco1)C(c1cc(Cl)ccc1F)S(=O)(=O)c1ccc(Cl)cc1` (stereo partly drawn) [Example 1300]: 6.30 to 7.00; `C[C@H](C(=O)NCCN1CCOCC1)N(c1cc(Cl)ccc1F)S(=O)(=O)c1ccc(Cl)cc1` [Example 1301]: < 6.30.
On to `C[C@H](C(=O)NCCC(c1ccccc1)c1ccccc1)N(c1cc(Cl)ccc1F)S(=O)(=O)c1ccc(Cl)cc1` [Example 1302], for which the negative logarithm of the IC50 (pIC50) is < 6.30.
Under `C[C@H](C(=O)NCC1CC1)C(c1cc(Cl)ccc1F)S(=O)(=O)c1ccc(Cl)cc1` (stereo partly drawn) [Example 1303] stands 6.30 to 7.00.
Next, `C[C@H](C(=O)NCCc1ccncc1)N(c1cc(Cl)ccc1F)S(=O)(=O)c1ccc(Cl)cc1` [Example 1304]: 6.30 to 7.00; `C[C@H](C(=O)NCCc1ccc(Cl)cc1Cl)N(c1cc(Cl)ccc1F)S(=O)(=O)c1ccc(Cl)cc1` [Example 1305]: < 6.30.
Consider `C[C@H](C(=O)NC[C@]12CC3C[C@H](C[C@H](C3)C1)C2)N(c1cc(Cl)ccc1F)S(=O)(=O)c1ccc(Cl)cc1` [Example 1306], for which the pIC50 was < 6.30.
Under `C[C@H](C(=O)NC1CCCC1)C(c1cc(Cl)ccc1F)S(=O)(=O)c1ccc(Cl)cc1` (stereo partly drawn) [Example 1307] stands 6.30 to 7.00.
With `C[C@H](C(=O)NC1CCCCC1)N(c1cc(Cl)ccc1F)S(=O)(=O)c1ccc(Cl)cc1` [Example 1308], the pIC50 is 6.30 to 7.00.
Under `C[C@H](C(=O)NC1CCCc2ccccc21)N(c1cc(Cl)ccc1F)S(=O)(=O)c1ccc(Cl)cc1` (stereo partly drawn) [Example 1309] stands < 6.30; under `C[C@H](C(=O)NC1Cc2ccccc2C1)N(c1cc(Cl)ccc1F)S(=O)(=O)c1ccc(Cl)cc1` [Example 1310], < 6.30; under `C[C@H](C(=O)Nc1ccc2[nH]ncc2c1)N(c1cc(Cl)ccc1F)S(=O)(=O)c1ccc(Cl)cc1` [Example 1311], < 6.30.
In the case of `CCN(CC)CCCC(C)NC(=O)[C@@H](C)N(c1cc(Cl)ccc1F)S(=O)(=O)c1ccc(Cl)cc1` (stereo partly drawn) [Example 1312], the pIC50 was < 6.30.
Next, `C[C@H](C(=O)NCc1ccncc1)N(c1cc(Cl)ccc1F)S(=O)(=O)c1ccc(Cl)cc1` [Example 1313]: 6.30 to 7.00; `C[C@H](C(=O)NCCc1c(Cl)cccc1Cl)N(c1cc(Cl)ccc1F)S(=O)(=O)c1ccc(Cl)cc1` [Example 1314]: 6.30 to 7.00.
Turning to `CCN(CCNC(=O)[C@@H](C)N(c1cc(Cl)ccc1F)S(=O)(=O)c1ccc(Cl)cc1)c1cccc(C)c1` [Example 1315], the negative-log IC50 (pIC50) is < 6.30.
Under `C[C@H](C(=O)NC1CCC(C(C)(C)C)CC1)N(c1cc(Cl)ccc1F)S(=O)(=O)c1ccc(Cl)cc1` (stereo partly drawn) [Example 1316] stands < 6.30; under `C[C@H](C(=O)NCCc1cccs1)N(c1cc(Cl)ccc1F)S(=O)(=O)c1ccc(Cl)cc1` [Example 1317], < 6.30; under `C[C@H](C(=O)NCCOc1ccccc1)N(c1cc(Cl)ccc1F)S(=O)(=O)c1ccc(Cl)cc1` [Example 1318], < 6.30.
Next, `C[C@H](C(=O)NCc1ccc2c(c1)OCO2)N(c1cc(Cl)ccc1F)S(=O)(=O)c1ccc(Cl)cc1` [Example 1319]: < 6.30; `CCOCCCNC(=O)[C@@H](C)N(c1cc(Cl)ccc1F)S(=O)(=O)c1ccc(Cl)cc1` [Example 1320]: 6.30 to 7.00; `C[C@H](C(=O)NCC1CCCO1)N(c1cc(Cl)ccc1F)S(=O)(=O)c1ccc(Cl)cc1` (stereo partly drawn) [Example 1321]: 6.30 to 7.00.
Under `C[C@H](C(=O)NCCCN1CCOCC1)N(c1cc(Cl)ccc1F)S(=O)(=O)c1ccc(Cl)cc1` [Example 1322] stands < 6.30.
Turning to `C[C@H](C(=O)NC[C@@H]1CC[C@H]2C[C@@H]1C2(C)C)N(c1cc(Cl)ccc1F)S(=O)(=O)c1ccc(Cl)cc1` [Example 1323], the negative logarithm of the IC50 (pIC50) is < 6.30.
Next, `C[C@H](C(=O)NCCCCc1ccccc1)N(c1cc(Cl)ccc1F)S(=O)(=O)c1ccc(Cl)cc1` [Example 1324]: < 6.30; `Cc1ccc(CCNC(=O)[C@@H](C)N(c2cc(Cl)ccc2F)S(=O)(=O)c2ccc(Cl)cc2)cc1` [Example 1325]: < 6.30.
